Laboratory results from publication PMC10464103, “Antibacterial peptide PMAP-37(F34-R), expressed in Pichia pastoris, is effective against pathogenic bacteria and preserves plums” (Microbial Cell Factories, 2023).
Peptide text beside a SMILES is read from it.

How the values were obtained:
S. aureus [1] = assay: Total nucleotide leakage; format: cell-based; settings: within 30 min after treatment; 37 °C, PBS; OD 260 nm of supernatant
Protocol: The total nucleotide leakage experiment was performed according to a previously reported method with slight modifications. S. aureus was collected, washed twice, and resuspended in PBS to an OD600 of 0.8. Antimicrobial peptides were added and incubated at 37 °C for various durations. The bacterial solution was centrifuged to remove S. aureus. The OD of the supernatant was recorded at a wavelength of 260 nm.

[2] = system: S. aureus, Listeria monocytogenes, B. subtilis, Salmonella typhimurium, E. coli O157, E. coli; assay: Inhibition zone method; format: cell-based; settings: inhibition zone in LB agar; three Gram-positive and three Gram-negative bacteria; positive control 50 µg/mL gentamicin
Protocol: (§1) The inhibition zone method was performed as described in a previous study with slight modifications. Fifty microliters of the bacterial solution was mixed with 15 mL lysogeny broth, and the inhibition zone of the six bacteria was determined by drilling after coagulation. The stability of PMAP-37(F34-R) against S. aureus was determined using the inhibition zone method. 4 µg/mL PMAP-37(F-34R) was dissolved in buffers with different pH (2, 4, 6, 8, and 10), different proteases (papain, pepsin, trypsin, and protease K), and different temperatures (4, 25, 37, 65, and 90 °C). The stability profiles under various pH, proteases, and temperatures were determined. Untreated buffer was used as a negative control.

S. aureus [3] = assay: Membrane permeability, PI staining; format: cell-based; settings: 37 °C, 30 min with peptide, then PI; fluorescence microscope
Protocol: The permeability assay was performed as previously described with slight modifications. S. aureus was until the OD600 reached 0.3–0.6, washed three times with PBS, and resuspended to 1 × 10^8 CFU/mL. The bacteria (100 µL) were mixed with 50 µL of antimicrobial peptide and incubated at 37 °C for 30 min, with PBS as a control. The supernatant was centrifuged and discarded, the bacteria were resuspended with PI-diluted dye, and stained at 37 °C for 30 min. After washing three times with PBS, the unbound stain was removed, and 10 µL of PBS was taken; an appropriate amount of […] was added onto the slide, the cover glass was observed by fluorescence microscope.

[4] = design: method as in PMID 31858653; settings: compared with antibiotic; cited from earlier work
S. aureus [5] = assay: Stability at different temperatures and pH, read out by inhibition zone; format: physicochemical; settings: 4 µg/mL peptide, antibacterial activity against S. aureus by inhibition zone
Protocol: as §1

SMILES: CC[C@H](C)[C@H](NC(=O)[C@H](CCCNC(=N)N)NC(=O)[C@H](CCC(=O)O)NC(=O)[C@@H](NC(=O)[C@H](CCCCN)NC(=O)[C@H](CCC(=O)O)NC(=O)CNC(=O)[C@H](CC(C)C)NC(=O)[C@H](CCCNC(=N)N)NC(=O)[C@H](CCCNC(=N)N)NC(=O)CNC(=O)[C@H](CCCNC(=N)N)NC(=O)[C@H](CC(=O)O)NC(=O)[C@H](CO)NC(=O)[C@H](CC(C)C)NC(=O)[C@H](Cc1ccccc1)NC(=O)[C@H](CC(=O)O)NC(=O)[C@H](CCCNC(=N)N)NC(=O)[C@H](CC(C)C)NC(=O)[C@H](CCCNC(=N)N)NC(=O)[C@H](CO)NC(=O)[C@H](CC(C)C)NC(=O)[C@H](CC(C)C)NC(=O)CN)[C@@H](C)CC)C(=O)NCC(=O)N[C@@H](CCC(N)=O)C(=O)N[C@@H](CCCCN)C(=O)N[C@H](C(=O)N[C@@H](CCCCN)C(=O)N[C@@H](CC(=O)O)C(=O)N[C@@H](CC(C)C)C(=O)N[C@@H](CO)C(=O)N[C@@H](CCC(=O)O)C(=O)N[C@@H](CCCNC(=N)N)C(=O)N[C@@H](Cc1ccccc1)C(=O)N[C@@H](CCC(N)=O)C(=O)N[C@@H](CO)C(=O)O)[C@@H](C)CC [PMAP-37(F34-R)] (H-GLLSRLRDFLSDRGRRLGEKIERIGQKIKDLSERFQS-OH; N-terminus and C-terminus assumed)
- nucleotide leakage (S. aureus [1]): increased significantly
- inhibitory effect (inhibition zone) [2]: inhibited all six bacteria tested
- PI staining (membrane integrity) (S. aureus [3]): extensive cell death
- efficacy in animal experiments [4]: comparable to that of ceftifol sodium
- stability at other temperatures (S. aureus [5]; 4, 25, 37, 65 °C): maintained good stability
- stability at high temperature (S. aureus [5]; 90 °C): partially affected
- stability at other pH (S. aureus [5]; pH 2, 4, 6, 8 buffers): maintained good stability
- stability in strong base (S. aureus [5]; pH = 10 buffer): partially affected
